Measured values: patent publication US9580430B2, “9H-pyrimido[4,5-B]indoles and related analogs as BET bromodomain inhibitors” (THE REGENTS OF THE UNIVERSITY OF MICHIGAN, priority 2014, dated 2017)

Experiments:
[1] = molecular target: T1, recombinant BRD4 BD1 (Homo sapiens, UniProt O60885); assay: Competitive fluorescence-polarization (FP) binding assay, BRD4 BD1; conditions: competitive FP assay; protein 10 nM, probe […]; read-out: IC50 (nM) BRD4 BD1; also: probe 1.5 nM
T1 construct: for recombinant BRD4 BD1 and BRD4 BD2 proteins
Protocol: (§1) Fluorescence Polarization (FP) competitive binding studies were carried out using a FAM labeled fluorescent probe (ZBA248 or BRD-1F) to determine binding affinities of representative Compounds of the Disclosure for recombinant BRD4 BD1 and BRD4 BD2 proteins. For example, equilibrium dissociation constants (Kd) values of ZBA248 to these […] proteins were determined from protein saturation experiments by monitoring the total fluorescence polarization of mixtures composed with the fluorescent probe at a fixed concentration and proteins with increasing concentrations up to full saturation. Serial dilutions of testing protein were mixed with ZBA248 to a final volume of 200 μl in the assay buffer. […] Plates were incubated at room temperature for 30 minutes with gentle shaking to assure equilibrium. […] Kd values of ZBA248 were calculated by fitting the sigmoidal dose-dependent FP increases as a function of protein concentrations using Graphpad Prism 6.0 software (Graphpad Software, San Diego, Calif.).
(§2) The IC50 and Ki values of representative Compounds of the Disclosure were determined in a competitive binding experiment as described above. Mixtures of 10 μl of the tested compounds in assay buffer with 40% Ethylene Glycol and 190 μl of preincubated protein/probe complex solution in the assay buffer (100 mM potassium phosphate, pH 6.5, 0.01% Triton X-100) were added into assay plates which were incubated at room temperature for 30 minutes with gentle shaking. Final concentrations of proteins were 10 and 6 nM in assays for BD1 and BD2 of BRD4, respectively. […] FP values were measured as described above. IC50 values were determined by nonlinear regression fitting of the competition curves.

[2] = molecular target: T2, recombinant BRD4 BD2 (Homo sapiens, UniProt O60885); assay: Competitive fluorescence-polarization (FP) binding assay, BRD4 BD2; conditions: competitive FP assay; protein 6 nM, probe […]; read-out: IC50 (nM) BRD4 BD2; also: probe 1.5 nM
T2 construct: for recombinant BRD4 BD1 and BRD4 BD2 proteins
Protocol: as §1, §2

[3] = test system: MOLM-13; assay: Cell growth inhibition, MOLM-13 leukemia cells (CellTiter-Glo); type: cell-based; conditions: Homo sapiens, MOLM-13, 96 h; 4 days; read-out: IC50 (nM) MOLM-13 Cell Line (CellTiter-Glo assay)
Protocol: Cell growth inhibitory activity of representative Compounds of the Disclosure was determined using CellTiter-Glo® Luminescent Cell Viability Assay. […] Cell viability was determined using the CellTiter-Glo® Luminescent Cell Viability Assay Kit (Promega, Madison, Wis.) according to the manufacture's instruction. Briefly, a volume of CellTiter-Glo® Reagent equal to the volume of cell culture medium was added to each well, and then the plates were incubated at room temperature for 10-20 minutes. The luminescent signal was measured using a Tecan Infinite M1000 multimode microplate reader (Tecan, Morrisville, N.C.). The half maximal inhibitory concentration (IC50) was calculated using the GraphPad Prism 5 software (GraphPad Software, La Jolla, Calif.).

[4] = test system: MDA-MB-436; assay: Cell growth inhibition, MDA-MB-436 breast cancer cells (WST-8); type: cell-based; conditions: Homo sapiens, MDA-MB-436, 96 h; 4 days; read-out: IC50 (nM) MDA-MB-436 Cell Line (WST assay)
Protocol: All the breast cancer cell lines were obtained from the ATCC. Cell viability was determined using the WST-8 (2-(2-methoxy-4-nitrophenyl)-3-(4-nitrophenyl)-5-(2,4-disulfophenyl)-2H-tetrazolium, monosodium salt) based Cell Counting-8 Kit (Dojindo Molecular Technologies, Inc., Rockville, Md.) according to the manufacture's instruction. […] The absorbance was measured at 450 nm using a SPECTRAmax PLUS plate reader (Molecular Devices, Sunnyvale, Calif.). The IC50 was calculated using the GraphPad Prism 5 software.

IC50 [1] [nM]	IC50 [2] [nM]	IC50 [3] [nM]	IC50 [4] [nM]	Structure (SMILES)
49.1	40.6	77.5	84.8	COc1cc2c(cc1-c1c(C)noc1C)[nH]c1nc(C)nc(Nc3cc(C(F)(F)F)nn3C(C)C)c12 [Cpd. No. 22, 7-(3,5-Dimethylisoxazol-4-yl)-N-(1-isopropyl-3-(trifluoromethyl)-1H-pyrazol-5-yl)-6-methoxy-2-methyl-9H-pyrimido[4,5-b]indol-4-amine]
> 1000	> 1000	82.1	1110	COc1cc2c(cc1-c1c(C)noc1C)[nH]c1nc(C)nc(Nc3ncnn3C(C)C)c12 [Cpd. No. 29, 7-(3,5-dimethylisoxazol-4-yl)-N-(1-isopropyl-1H-1,2,4-triazol-5-yl)-6-methoxy-2-methyl-9H-pyrimido[4,5-b]indol-4-amine]
26.5	39.4	40.9	155	COc1cc2c(cc1-c1c(C)noc1C)[nH]c1nc(C)nc(Nc3[nH]ncc3C(C)C)c12 [Cpd. No. 32, 7-(3,5-dimethylisoxazol-4-yl)-N-(4-isopropyl-1H-pyrazol-5-yl)-6-methoxy-2-methyl-9H-pyrimido[4,5-b]indol-4-amine]
24.5	21.5	2420	303	COc1cc2c(cc1-c1c(C)noc1C)[nH]c1nc(C)nc(Nc3scnc3C(C)(C)C)c12 [Cpd. No. 33, 4-(tert-butyl)-N-(7-(3,5-dimethylisoxazol-4-yl)-6-methoxy-2-methyl-9H-pyrimido[4,5-b]indol-4-yl)thiazol-5-amine]
30.2	28.7	32.7	97.6	COc1cc2c(cc1-c1c(C)noc1C)[nH]c1nc(C)nc(Nc3cn(C)nc3C)c12 [Cpd. No. 34, N-(1,3-dimethyl-1H-pyrazol-4-yl)-7-(3,5-dimethylisoxazol-4-yl)-6-methoxy-2-methyl-9H-pyrimido[4,5-b]indol-4-amine]
20.4	42.9	38.9	88.9	COc1cc2c(cc1-c1c(C)noc1C)[nH]c1nc(C)nc(Nc3c(C)nn(C)c3C)c12 [Cpd. No. 35, 7-(3,5-dimethylisoxazol-4-yl)-6-methoxy-2-methyl-N-(1,3,5-trimethyl-1H-pyrazol-4-yl)-9H-pyrimido[4,5-b]indol-4-amine]
68.5	92.6	103	236	COc1cc2c(cc1-c1c(C)noc1C)[nH]c1nc(C)nc(Nc3c(C)nn(C(C)C)c3C)c12 [Cpd. No. 36, 7-(3,5-dimethylisoxazol-4-yl)-N-(1-isopropyl-3,5-dimethyl-1H-pyrazol-4-yl)-6-methoxy-2-methyl-9H-pyrimido[4,5-b]indol-4-amine]
12.1	6.5	54.1	56.2	COc1cc2c(cc1-c1c(C)noc1C)[nH]c1nc(C)nc(Nc3c(C)cnn3C(C)C)c12 [Cpd. No. 37, 7-(3,5-dimethylisoxazol-4-yl)-N-(1-isopropyl-4-methyl-1H-pyrazol-5-yl)-6-methoxy-2-methyl-9H-pyrimido[4,5-b]indol-4-amine]
11	22.6	32	54.6	COc1cc2c(cc1-c1c(C)noc1C)[nH]c1nc(C)nc(Nc3n[nH]c4ccccc34)c12 [Cpd. No. 58, 7-(3,5-Dimethylisoxazol-4-yl)-N-(1H-indazol-3-yl)-6-methoxy-2-methyl-9H-pyrimido[4,5-b]indol-4-amine]
90.5	174	401	535	COc1cc2c(cc1-c1c(C)noc1C)[nH]c1nc(C)nc(Nc3nn(C)c4cc(F)ccc34)c12 [Cpd. No. 59, 7-(3,5-Dimethylisoxazol-4-yl)-N-(6-fluoro-1-methyl-1H-indazol-3-yl)-6-methoxy-2-methyl-9H-pyrimido[4,5-b]indol-4-amine]

The next lines start with the compound.

Structure (SMILES)	IC50 [1] [nM]	IC50 [2] [nM]	IC50 [3] [nM]	IC50 [4] [nM]
COc1cc2c(cc1-c1c(C)noc1C)[nH]c1nc(C)nc(Nc3nn(C)c4ncccc34)c12 [Cpd. No. 10, 7-(3,5-Dimethylisoxazol-4-yl)-6-methoxy-2-methyl-N-(1-methyl-1H-pyrazolo[3,4-b]pyridin-3-yl)-9H-pyrimido[4,5-b]indol-4-amine]	21.5	43.3	45.6	138
COc1cc2c(cc1-c1c(C)noc1C)[nH]c1nc(C)nc(Nc3nn(C)c4ccncc34)c12 [Cpd. No. 11, 7-(3,5-dimethylisoxazol-4-yl)-6-methoxy-2-methyl-N-(1-methyl-1H-pyrazolo[4,3-c]pyridin-3-yl)-9H-pyrimido[4,5-b]indol-4-amine]	240	235	23.9	398
COc1cc2c(cc1-c1c(C)noc1C)[nH]c1nc(C)nc(Nc3nn(C)c4ccc(Cl)cc34)c12 [Cpd. No. 13, N-(5-Chloro-1-methyl-1H-indazol-3-yl)-7-(3,5-dimethylisoxazol-4-yl)-6-methoxy-2-methyl-9H-pyrimido[4,5-b]indol-4-amine]	> 1000	> 1000	108	1080
COc1cc2c(cc1-c1c(C)noc1C)[nH]c1nc(C)nc(Nc3cnn4ccccc34)c12 [Cpd. No. 14, 7-(3,5-Dimethylisoxazol-4-yl)-6-methoxy-2-methyl-N-(pyrazolo[1,5-a]pyridin-3-yl)-9H-pyrimido[4,5-b]indol-4-amine]	14.6	22.6	23.7	83.3
COc1cc2c(cc1-c1c(C)noc1C)[nH]c1nc(C)nc(Nc3c(C)nn4ccccc34)c12 [Cpd. No. 15, 7-(3,5-Dimethylisoxazol-4-yl)-6-methoxy-2-methyl-N-(2-methylpyrazolo[1,5-a]pyridin-3-yl)-9H-pyrimido[4,5-b]indol-4-amine]	10.1	18.8	5.1	33.7
COc1cc2c(cc1-c1c(C)noc1C)[nH]c1nc(C)nc(Nc3cnn4cccnc34)c12 [Cpd. No. 16, 7-(3,5-Dimethylisoxazol-4-yl)-6-methoxy-2-methyl-N-(pyrazolo[1,5-a]pyrimidin-3-yl)-9H-pyrimido[4,5-b]indol-4-amine]	248	194	14.6	529
COc1cc2c(cc1-c1c(C)noc1C)[nH]c1ncnc(Nc3nn(C)c4ccccc34)c12 [Cpd. No. 17, 7-(3,5-Dimethylisoxazol-4-yl)-6-methoxy-N-(1-methyl-1H-indazol-3-yl)-9H-pyrimido[4,5-b]indol-4-amine]	16.7	82.3	28.4	51
COc1cc2c(cc1-c1c(C)noc1C)[nH]c1nc(C(C)C)nc(Nc3nn(C)c4ccccc34)c12 [Cpd. No. 18, 7-(3,5-Dimethylisoxazol-4-yl)-2-isopropyl-6-methoxy-N-(1-methyl-1H-indazol-3-yl)-9H-pyrimido[4,5-b]indol-4-amine]	211	1160	86.2	141
COc1ccc2c(Nc3nc(C)nc4[nH]c5cc(-c6c(C)noc6C)c(OC)cc5c34)nn(C)c2c1 [Cpd. No. 19, 7-(3,5-Dimethylisoxazol-4-yl)-6-methoxy-N-(6-methoxy-1-methyl-1H-indazol-3-yl)-2-methyl-9H-pyrimido[4,5-b]indol-4-amine]	200	613	109	323
COc1cc2c(cc1-c1c(C)noc1C)[nH]c1nc(C)nc(Nc3cc(C(F)(F)F)nn3C)c12 [Cpd. No. 21, 7-(3,5-Dimethylisoxazol-4-yl)-6-methoxy-2-methyl-N-(1-methyl-3-(trifluoromethyl)-1H-pyrazol-5-yl)-9H-pyrimido[4,5-b]indol-4-amine]	13.3	34.6	21.9	52.7
